Counter-ions that a name gives are not always drawn.
Legend:
Adrenergic β2 = molecular target: T1, Adrenergic β2 (Homo sapiens, UniProt P07550); assay: Alternative adrenergic β2 mediated cAMP production in H292 cells (AlphaScreen cAMP detection); format: cell-based; settings: for EC50: cAMP, test compounds incubated 60 minutes at room temperature, 300 μM rolipram, read-out: β2 pEC50 (converted); for β2 Int Act: fraction relative to the maximum activity determined for formoterol, 60 minutes incubation
T1 construct: endogenous in cells; host or cells: H292 cells
Experimental: Alternative Adrenergic β2 Mediated cAMP Production Cell Preparation
H292 cells were grown in 225 cm2 flasks incubator at 37° C., 5% CO2 in RPMI medium containing, 10% (v/v) FBS (foetal bovine serum) and 2 mM L-glutamine.
Adherent H292 cells were removed from tissue culture flasks by treatment with Accutase™ cell detachment solution for 15 minutes. Flasks were incubated for 15 minutes in a humidified incubator at 37° C., 5% CO2. Detached cells were re-suspended in RPMI media (containing 10% (v/v) FBS and 2 mM L-glutamine) at 0.05×10^6 cells per mL. 5000 cells in 100 μL were added to each well of a tissue-culture-treated 96-well plate and the cells incubated overnight in a humidified incubator at 37° C., 5% CO2. The culture media was removed and cells were washed twice with 100 μL assay buffer and replaced with 50 μL assay buffer (HBSS solution containing 10 mM HEPES pH7.4 and 5 mM glucose). Cells were rested at room temperature for 20 minutes after which time 25 μL of rolipram (1.2 mM made up in assay buffer containing 2.4% (v/v) dimethylsulphoxide) was added. Cells were incubated with rolipram for 10 minutes after which time test compounds were added and the cells were incubated for 60 minutes at room temperature. The final rolipram concentration in the assay was 300 μM and final vehicle concentration was 1.6% (v/v) dimethylsulphoxide. The reaction was stopped by removing supernatants, washing once with 100 μL assay buffer and replacing with 50 μL lysis buffer. The cell monolayer was frozen at −80° C. for 30 minutes (or overnight).
AlphaScreen™ cAMP Detection
The concentration of cAMP (cyclic adenosine monophosphate) in the cell lysate was determined using AlphaScreen™ methodology. The frozen cell plate was thawed for 20 minutes on a plate shaker then 10 μL of the cell lysate was transferred to a 96-well white plate. 40 μL of mixed AlphaScreen™ detection beads pre-incubated with biotinylated cAMP, was added to each well and the plate incubated at room temperature for 10 hours in the dark. The AlphaScreen™ signal was measured using an EnVision spectrophotometer (Perkin-Elmer Inc.) with the recommended manufacturer's settings. cAMP concentrations were determined by reference to a calibration curve determined in the same experiment using standard cAMP concentrations. Concentration response curves for agonists were constructed and data was fitted to a four parameter logistic equation to determine both the pEC50 and Intrinsic Activity. Intrinsic Activity was expressed as a fraction relative to the maximum activity determined for formoterol in each experiment.

[1] = molecular target: T2, recombinant human adrenergic beta 1 receptors (Homo sapiens, UniProt P08588); assay: Adrenergic β1 selectivity assay, inhibition of [125I]-Iodocyanopindolol binding to membranes; settings: [125I]-Iodocyanopindolol 0.036 nM; read-out: β1 bind p IC50 (converted)
T2 construct: purchased Euroscreen
Experimental: (§1) Membranes containing recombinant human adrenergic beta 1 receptors were obtained from Euroscreen. These were diluted in Assay Buffer (50 mM HEPES, 1 mM EDTA, 120 mM NaCl, 0.1% gelatin, pH 7.4) to provide a final concentration of membranes that gave a clear window between maximum and minimum specific binding.
Assays were performed in U-bottomed 96-well polypropylene plates. 10 μL [^125I]-Iodocyanopindolol (0.036 nM final concentration) and 10 μL of test compound (10× final concentration) were added to each test well. For each assay plate 8 replicates were obtained for [^125I]-Iodocyanopindolol binding in the presence of 10 μL vehicle (10% (v/v) DMSO in Assay Buffer; defining maximum binding) or 10 μL Propranolol (10 μM final concentration; defining non-specific binding (NSB)). Membranes were then added to achieve a final volume of 100 μL. […] Five washes with 250 μL wash buffer (50 mM HEPES, 1 mM EDTA, 120 mM NaCl, pH 7.4) were performed at 4° C. to remove unbound radioactivity. […] The plates were sealed (TopSeal A) and filter-bound radioactivity was measured with a scintillation counter (TopCount, Packard BioScience) using a 3-minute counting protocol.
Total specific binding (B0) was determined by subtracting the mean NSB from the mean maximum binding. […]

[2] = molecular target: T3, recombinant human Dopamine Subtype D2s receptors (Homo sapiens, UniProt P14416); assay: Dopamine D2 selectivity assay, inhibition of [3H]-spiperone binding to membranes; settings: [3H]-spiperone 0.16 nM; read-out: D2 bind pIC50 (converted)
T3 construct: purchased Perkin Elmer
Experimental: as §1, with “Dopamine Subtype D2s” for “adrenergic beta 1”, “Perkin Elmer.” for “Euroscreen.”
Assays were performed in U-bottomed 96-well polypropylene plates. 30 μL [^3H]-spiperone (0.16 nM final concentration) and 30 μL of test compound (10× final concentration) were added to each test well. For each assay plate 8 replicates were obtained for [^3H]-spiperone binding in the presence of 30 μL vehicle (10% (v/v) DMSO in Assay Buffer; defining maximum binding) or 30 μL Haloperidol (10 μM final concentration; defining non-specific binding (NSB)). Membranes were then added to achieve a final volume of 300 μL. The plates were incubated for 2 hours at room temperature and then filtered onto PEI coated GF/B filter plates, pre-soaked for 1 hour in Assay Buffer, using a 96-well plate Tomtec cell harvester. Five washes with 250 μL wash buffer (50 mM HEPES, 1 mM EDTA, 120 mM NaCl, pH 7.4) were performed at 4° C. to remove unbound radioactivity. The plates were dried then sealed from underneath using Packard plate sealers and MicroScint-O (50 μL) was added to each well. The plates were sealed (TopSeal A) and filter-bound radioactivity was measured with a scintillation counter (TopCount, Packard BioScience) using a 3-minute counting protocol.
Total specific binding (B0) was determined by subtracting the mean NSB from the mean maximum binding. NSB values were also subtracted from values from all other wells. […] Data was fitted to a four parameter logistic equation to determine the compound potency, which was expressed as pIC50 (negative log molar concentration inducing 50% inhibition of [^3H]-spiperone binding).

T1 sequence (P07550 whole entry): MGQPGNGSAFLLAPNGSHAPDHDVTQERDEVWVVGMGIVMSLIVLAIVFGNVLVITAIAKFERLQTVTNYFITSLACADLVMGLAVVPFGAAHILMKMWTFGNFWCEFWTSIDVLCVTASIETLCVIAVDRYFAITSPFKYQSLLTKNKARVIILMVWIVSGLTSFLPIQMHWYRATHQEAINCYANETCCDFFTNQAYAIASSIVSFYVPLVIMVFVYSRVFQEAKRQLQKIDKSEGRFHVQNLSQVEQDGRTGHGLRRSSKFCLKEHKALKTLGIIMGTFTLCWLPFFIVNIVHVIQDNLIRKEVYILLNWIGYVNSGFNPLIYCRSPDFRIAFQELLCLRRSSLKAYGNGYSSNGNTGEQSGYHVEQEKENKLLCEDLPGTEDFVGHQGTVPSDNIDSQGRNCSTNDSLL
T2 sequence (P08588 whole entry): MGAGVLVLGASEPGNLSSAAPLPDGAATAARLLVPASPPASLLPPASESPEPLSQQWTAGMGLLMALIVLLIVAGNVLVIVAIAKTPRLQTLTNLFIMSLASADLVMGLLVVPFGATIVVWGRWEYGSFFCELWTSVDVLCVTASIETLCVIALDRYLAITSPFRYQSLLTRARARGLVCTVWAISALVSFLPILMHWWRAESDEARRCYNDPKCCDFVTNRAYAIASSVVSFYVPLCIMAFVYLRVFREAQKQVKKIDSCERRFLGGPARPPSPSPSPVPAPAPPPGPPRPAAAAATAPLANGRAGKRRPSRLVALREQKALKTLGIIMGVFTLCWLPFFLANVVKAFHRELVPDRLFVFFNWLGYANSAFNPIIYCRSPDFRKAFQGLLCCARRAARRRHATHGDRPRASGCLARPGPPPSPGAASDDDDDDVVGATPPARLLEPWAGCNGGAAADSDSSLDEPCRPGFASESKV
T3 sequence (P14416 1-414 isoform P14416-2): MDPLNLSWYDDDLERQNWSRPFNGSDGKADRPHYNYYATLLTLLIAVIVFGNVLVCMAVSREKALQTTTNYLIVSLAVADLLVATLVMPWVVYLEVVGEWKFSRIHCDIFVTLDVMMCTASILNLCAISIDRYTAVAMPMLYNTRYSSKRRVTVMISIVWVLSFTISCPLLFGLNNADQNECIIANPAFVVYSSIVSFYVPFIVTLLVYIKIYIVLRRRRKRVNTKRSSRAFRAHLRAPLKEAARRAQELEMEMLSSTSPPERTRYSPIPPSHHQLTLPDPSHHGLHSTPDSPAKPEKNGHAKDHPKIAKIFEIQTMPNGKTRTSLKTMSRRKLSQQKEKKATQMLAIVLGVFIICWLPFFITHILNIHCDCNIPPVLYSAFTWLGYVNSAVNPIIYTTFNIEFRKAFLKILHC

| Compound | EC50 (Adrenergic β2) [nM] | β2 Int Act (Adrenergic β2) | IC50 [1] [nM] | IC50 [2] [nM] |
| --- | --- | --- | --- | --- |
| CCN(CC)CCN(CCNCCc1ccc(O)c2[nH]c(=O)sc12)C(=O)CCOCCc1ccc(Cl)cc1 [Example 26, 3-[2-(4-Chlorophenyl)ethoxy]-N-(2-diethylaminoethyl)-N-{2-[2-(4-hydroxy-2-oxo-2,3-dihydro-1,3-benzothiazol-7-yl)ethylamino]ethyl}propanamide dihydrobromide] | 15.8 | 0.6 | 1000 | 1260 |
| CCN(CC)CCN(CCNCCc1ccc(O)c2[nH]c(=O)sc12)C(=O)CCOCCc1cccc(C)c1 [Example 28, N-[2-(Diethylamino)ethyl]-N-(2-{[2-(4-hydroxy-2-oxo-2,3-dihydro-1,3-benzothiazol-7-yl)ethyl]amino}ethyl)-3-[2-(3-methylphenyl)ethoxy]propanamide] | 3.16 | 0.6 | 1000 | 1000 |
